Key:
PI3K alpha = PI3K alpha (Homo sapiens (Human), UniProt P42336); assay: Enzymatic PI3K alpha isoform inhibition (lipid kinase activity, Kinase-Glo luminescence); assay type: biochemical; settings: Enzymatic assay
Outline: (§1)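 IC50s derive from 4-parameter logistic fits of % inhibition across 8 concentrations (usually 10 to 0.003 μM). Lipid kinase reaction: PI3K (10 nM) plus phosphatidylinositol (5 μg/mL) started with 2 μM ATP, stopped near 50% ATP depletion; leftover ATP quantified by Kinase-Glo luminescence.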

[1] = test system: rat B cells derived from whole blood; assay: Determination of rat B cell activation in whole blood (CD86 upregulation after anti-IgM and rIL-4); assay type: cell-based; settings: anti-IgM + rIL-4 stimulation, CD86 on CD45RA+ B cells, read-out: RWB/IC50 CD86
Method: 2.3 Determination of Rat B Cell Activation
PI3Kδ has been recognized to modulate B cell function when cells are stimulated through the B cell receptor (BCR) (Okkenhaug et al. Science 297:1031 (2002). For assessing the inhibitory property of compounds on B cell activation, the upregulation of activation markers CD86 on rat B cells derived from whole blood is measured after stimulation with anti-IgM and recombinant IL-4. The CD86 molecule (also known as B7-2) is primarily expressed on antigen-presenting cells, including B cells. Resting B cells express CD86 at low levels, but upregulate it following stimulation of e.g. the BCR or IL-4 receptor. CD86 on a B cell interacts with CD28 on T cells. This interaction is required for optimal T cell activation and for the generation of an optimal IgG1 response (Carreno et al. Annu Rev Immunol. 20:29 (2002)).
Whole blood was collected from the abdominal aorta adult male Lewis rats (LEW/HanHsd) oby using a 10 ml syringe with hypodermic needle pre-coated with sodium heparin. Blood was transferred into 50 ml Falcon tubes and the anticoagulant concentration was adjusted to 100 U/ml.
For assessment of the in vitro effects of immunosuppressive drugs, heparinized blood was prediluted to 50% with medium. As medium served DMEM high glucose (Animed cat#1-26F01-I) supplemented with 100 U/ml penicillin, […], 2 mM L-glutamin, 50 mg/ml dextran 40 and 5% fetal calf serum (FCS, Fetaclone I, Gibco #10270-106). Then, 190 μl prediluted blood was spiked with 10 μl of pre-diluted test compound in 96 well U-bottomed microtiter plates (Nunc) resulting in a 3-fold serial dilution with a concentration range from 20 to 0.0003 μM. Control wells were pretreated with DMSO to obtain a final concentration of 0.5% DMSO. Cultures were set up in duplicates, mixed well by agitation on a plate shaker (Heidolph Titramax 101; 30 sec, speed 900), pipetting up and down and agitated on the plate shaker again. Cultures were incubated at 37° C., 5% CO2 for 1 hr. Then, 20 μl of polyclonal goat anti-rat IgM Ab (Serotec, cat#302001) and 10 μl of diluted recombinant rIL-4 (Immunotools #340085) were added to obtain final concentrations of 30 μg/ml and 5 ng/ml, respectively. Plates were mixed by agitation on a plate shaker as above and incubated for 24 hrs at 37° C., 5% CO2.
After incubation, 15 μl of a 25 mM EDTA solution was added per well and shaken for 15 min to detach adherent cells. For analysis of surface activation markers, samples were then stained with PE-Cy5-labeled anti-ratCD45RA (BD cat#557015) to allow gating on B cells in FACS analysis. In addition, samples were stained with PE-labeled anti-rat CD86 (BD cat#551396). All staining procedures were performed at rt for 30 min in the dark. After incubation, samples were transferred to 96-deep well V-bottomed microtiter plates (Corning #396096) containing 2 ml/well of BD Lysing Solution (BD #349202). After lysis of erythrocytes samples were washed with 2 ml of CellWASH (BD #349524). Data was acquired on an LSRII or FACScalibur flow cytometer (BD Biosciences) using Cellquest Plus or DIVA (version 6.1.1) software, respectively. Lymphocytes were gated in the FSC/SSC dot blot according to size and granularity and further analyzed for expression of CD45RA and activation markers. Data were calculated from dot blots or histograms as percentage of cells positively stained for activation markers within the CD45RA+ population.
The percentage inhibition of B cell activation after exposure to drug was calculated by the following formula: […]
ORIGIN 7 software (OriginLab Corporation, Northampton, Mass.) was used for non-linear regression curve fitting.

PI3K delta = PI3K delta (Homo sapiens (Human), UniProt O00329); assay: Enzymatic PI3K delta isoform inhibition (lipid kinase activity, Kinase-Glo luminescence); assay type: biochemical; settings: Enzymatic assay
PI3K delta, sequence (O00329 other isoform, or with tags, fused parts or gaps linker GGGGGG): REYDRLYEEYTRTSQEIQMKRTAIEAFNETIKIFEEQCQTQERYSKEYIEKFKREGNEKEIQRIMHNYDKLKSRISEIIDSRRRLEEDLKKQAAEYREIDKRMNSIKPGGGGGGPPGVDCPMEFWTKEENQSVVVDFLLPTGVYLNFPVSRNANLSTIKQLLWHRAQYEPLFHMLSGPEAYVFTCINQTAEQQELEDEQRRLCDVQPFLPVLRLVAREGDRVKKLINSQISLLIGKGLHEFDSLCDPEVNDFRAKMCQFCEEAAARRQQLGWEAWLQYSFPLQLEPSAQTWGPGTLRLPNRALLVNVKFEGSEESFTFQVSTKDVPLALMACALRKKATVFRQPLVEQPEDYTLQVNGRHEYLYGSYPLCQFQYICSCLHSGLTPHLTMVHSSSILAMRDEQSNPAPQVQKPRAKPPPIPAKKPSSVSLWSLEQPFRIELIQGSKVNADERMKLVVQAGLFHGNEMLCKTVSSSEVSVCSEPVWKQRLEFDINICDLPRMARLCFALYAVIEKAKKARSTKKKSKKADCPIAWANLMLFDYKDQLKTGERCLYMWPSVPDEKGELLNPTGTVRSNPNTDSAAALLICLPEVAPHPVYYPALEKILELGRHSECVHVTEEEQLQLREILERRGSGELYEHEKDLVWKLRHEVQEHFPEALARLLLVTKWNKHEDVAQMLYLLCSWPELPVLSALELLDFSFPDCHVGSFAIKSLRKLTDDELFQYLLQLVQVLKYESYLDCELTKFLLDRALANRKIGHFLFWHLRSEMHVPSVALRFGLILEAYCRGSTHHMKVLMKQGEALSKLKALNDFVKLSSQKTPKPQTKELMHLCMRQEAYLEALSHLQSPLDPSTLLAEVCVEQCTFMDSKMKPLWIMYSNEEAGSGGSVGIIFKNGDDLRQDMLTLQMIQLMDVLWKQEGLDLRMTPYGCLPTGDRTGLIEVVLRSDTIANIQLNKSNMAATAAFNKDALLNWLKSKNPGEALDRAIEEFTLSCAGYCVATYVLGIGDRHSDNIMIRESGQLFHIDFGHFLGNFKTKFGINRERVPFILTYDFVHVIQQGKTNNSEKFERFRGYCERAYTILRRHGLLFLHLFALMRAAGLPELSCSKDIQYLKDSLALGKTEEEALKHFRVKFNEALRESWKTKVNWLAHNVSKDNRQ
Outline: as §1

[2] = biological target: myristoylated catalytic subunit of human PI3K delta in Rat-1 cells (Homo sapiens (Human), UniProt O00329); assay: PI3K-mediated Akt 1/2 (S473) phosphorylation in Rat-1 cells, PI3K delta; assay type: cell-based; settings: Rat-1 cells overexpressing myristoylated human PI3K delta; p-Akt (S473) AlphaScreen SureFire; read-out: Cell PI3Kδ/ IC50
myristoylated catalytic subunit of human PI3K delta in Rat-1 cells, sequence (O00329 whole entry): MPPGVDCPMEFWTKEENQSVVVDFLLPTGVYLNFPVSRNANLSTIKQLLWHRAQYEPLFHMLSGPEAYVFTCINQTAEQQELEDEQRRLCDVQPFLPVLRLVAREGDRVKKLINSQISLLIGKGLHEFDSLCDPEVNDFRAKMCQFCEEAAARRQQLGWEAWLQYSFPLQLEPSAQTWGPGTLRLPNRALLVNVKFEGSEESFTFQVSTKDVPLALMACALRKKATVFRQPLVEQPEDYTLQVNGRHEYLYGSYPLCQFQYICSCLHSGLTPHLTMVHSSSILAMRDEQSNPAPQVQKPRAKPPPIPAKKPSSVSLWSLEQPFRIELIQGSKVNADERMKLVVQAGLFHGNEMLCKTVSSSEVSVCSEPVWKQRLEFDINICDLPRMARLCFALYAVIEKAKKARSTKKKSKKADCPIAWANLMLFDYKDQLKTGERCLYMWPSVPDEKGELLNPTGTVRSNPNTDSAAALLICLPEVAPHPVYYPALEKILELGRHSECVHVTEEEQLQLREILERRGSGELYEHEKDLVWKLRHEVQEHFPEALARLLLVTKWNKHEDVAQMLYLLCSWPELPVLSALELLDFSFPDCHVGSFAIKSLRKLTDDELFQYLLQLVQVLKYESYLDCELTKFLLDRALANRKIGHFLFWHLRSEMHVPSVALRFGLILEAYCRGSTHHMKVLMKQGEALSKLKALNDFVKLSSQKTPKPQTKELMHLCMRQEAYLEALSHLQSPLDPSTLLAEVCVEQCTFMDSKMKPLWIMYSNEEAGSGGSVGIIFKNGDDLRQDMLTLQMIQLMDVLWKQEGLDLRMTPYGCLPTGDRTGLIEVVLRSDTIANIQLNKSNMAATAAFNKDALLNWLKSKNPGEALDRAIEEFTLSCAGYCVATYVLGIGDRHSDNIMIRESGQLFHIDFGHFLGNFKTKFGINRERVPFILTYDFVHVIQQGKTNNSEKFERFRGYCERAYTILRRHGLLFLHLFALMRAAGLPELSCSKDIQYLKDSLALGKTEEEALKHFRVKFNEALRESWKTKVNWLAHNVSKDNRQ
Method: 2.1 Phosphoinositide-3 Kinase (PI3K)-Mediated Akt 1/2 (S473) Phosphorylation in Rat-1 Cells
Rat-1 cells stably overexpressing a myristoylated form of the catalytic subunit of human phosphoinositide-3 kinase (PI3K) alpha, beta or delta were plated in 384-well plates at a density of 7500 (PI3K alpha), 6200 (PI3K beta), or 4000 (PI3K delta) cells in 30 ul complete growth medium (Dulbecco's modified Eagle's medium (DMEM high glucose) supplemented with 10% (v/v) fetal bovine serum, 1% (v/v) MEM non essential amino acids, 10 mM HEPES, 2 mM L-glutamine, 10 μg/mL puromycin and 1% (v/v) Penicillin/Streptomycin) and were incubated at […]/5% CO2/95% humidity for 24 h. Compounds were diluted in 384-well compound plates to obtain 8-point serial dilutions for 40 test compounds in 90% DMSO, as well as 4 reference compounds plus 16 high controls and 16 low (inhibited) controls. Predilution plates were prepared by dispensing pipetting 250 nl of compound solutions into 384-well polypropylen plates using a Hummingwell nanoliter dispensor. Compounds were prediluted by the addition of 49.75 ul complete growth medium. 10 ul of prediluted compound solution were transferred to the cell plate using a 384-well pipettor, resulting in a final DMSO concentration of 0.11%.
Cells were incubated for 1 h at […]/5% CO2/95% humidity. The supernatant was removed, the cells were lysed in 20 ul of lysis buffer for AlphaScreen® SureFire® detection.
For detection of p-AKT(Ser473), the SureFire® p-Akt 1/2 (Ser473) Assay Kit (PerkinElmer, U.S.A) was used. 5 ul of cell lysate was transferred to 384-well low volume Proxiplates for detection using a 384-well pipettor. Addition of AlphaScreen® SureFire® reagents was done according to the manufacturer's protocol. First, 5 ul of reaction buffer plus activation buffer mix containing AlphaScreen® acceptor beads was added, the plate was sealed, and incubated on a plate shaker for 2 hours at room temperature. Second, 2 ul of dilution buffer containing AlphaScreen® donor beads was added, and the plate was incubated on plate shaker as above for a further 2 hours. The plate was read on an AlphaScreen® compatible plate reader, using standard AlphaScreen® settings.

PI3K alpha, sequence (P42336 other isoform, or with tags, fused parts or gaps): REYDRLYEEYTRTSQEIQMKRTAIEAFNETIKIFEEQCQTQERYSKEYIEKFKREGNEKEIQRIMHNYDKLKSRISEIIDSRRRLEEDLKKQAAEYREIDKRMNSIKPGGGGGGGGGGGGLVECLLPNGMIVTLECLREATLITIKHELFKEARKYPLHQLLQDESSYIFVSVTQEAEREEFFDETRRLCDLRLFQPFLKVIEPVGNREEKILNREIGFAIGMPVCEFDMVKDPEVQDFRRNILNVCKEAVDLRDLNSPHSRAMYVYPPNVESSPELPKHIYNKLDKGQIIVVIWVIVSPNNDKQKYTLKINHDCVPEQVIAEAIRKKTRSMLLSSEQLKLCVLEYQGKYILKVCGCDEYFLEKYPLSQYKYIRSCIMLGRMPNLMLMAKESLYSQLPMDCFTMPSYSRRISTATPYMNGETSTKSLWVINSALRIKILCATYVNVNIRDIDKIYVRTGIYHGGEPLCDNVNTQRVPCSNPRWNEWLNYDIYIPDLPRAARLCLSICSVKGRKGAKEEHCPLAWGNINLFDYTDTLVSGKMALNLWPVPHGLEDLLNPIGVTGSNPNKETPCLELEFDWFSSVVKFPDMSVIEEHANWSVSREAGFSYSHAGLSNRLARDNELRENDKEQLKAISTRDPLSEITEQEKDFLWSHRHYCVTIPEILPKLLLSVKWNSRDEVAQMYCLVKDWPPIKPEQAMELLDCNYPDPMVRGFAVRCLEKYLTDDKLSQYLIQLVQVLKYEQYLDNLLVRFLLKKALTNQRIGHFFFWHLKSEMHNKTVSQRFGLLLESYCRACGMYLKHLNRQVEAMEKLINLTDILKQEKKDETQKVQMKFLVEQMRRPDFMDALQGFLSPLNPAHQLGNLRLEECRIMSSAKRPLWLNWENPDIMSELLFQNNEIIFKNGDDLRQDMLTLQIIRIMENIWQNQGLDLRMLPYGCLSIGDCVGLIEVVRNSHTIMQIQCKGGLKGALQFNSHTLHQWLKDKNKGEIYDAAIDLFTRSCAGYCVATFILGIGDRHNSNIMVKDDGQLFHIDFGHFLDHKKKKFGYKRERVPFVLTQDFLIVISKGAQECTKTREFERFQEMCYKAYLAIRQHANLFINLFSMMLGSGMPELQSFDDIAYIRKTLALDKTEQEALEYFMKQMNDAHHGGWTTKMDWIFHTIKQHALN

Structure (SMILES)	IC50 (PI3K alpha) [µM]	IC50 [1] [µM]	IC50 (PI3K delta) [µM]	IC50 [2] [µM]
[2H]C1([2H])COc2ccc(O[C@H]3CCN(C(=O)C4CCOCC4)C3)cc2N1c1cnc(OC)c(C)c1 (single isomer, unassigned) [Q]	1.14	0.037	0.014	0.145
COc1ncc(N2CCOc3cnc(O[C@H]4CCN(C(=O)c5cn(C)cn5)C4)cc32)cc1C [Example E1, {(S)-3-[1-(6-Methoxy-5-methyl-pyridin-3-yl)-2,3-dihydro-1H-pyrido[3,4-b][1,4]oxazin-7-yloxy]-pyrrolidin-1-yl}-(1-methyl-1H-imidazol-4-yl)-methanone]	0.098	0.078	0.004	0.007
COc1ncc(N2CCOc3cnc(O[C@H]4CCN(C(=O)C5CCOCC5)C4)cc32)cc1C [Example E3, {(S)-3-[1-(6-Methoxy-5-methyl-pyridin-3-yl]-2,3-dihydro-1H-pyrido[3,4-b][1,4]oxazin-7-yloxy]-pyrrolidin-1-yl}-(tetrahydro-pyran-4-yl)-methanone]	0.494	0.014	< 0.003	0.018
Cc1cc(N2CCOc3ccc(O[C@H]4CCN(C(=O)C5CCOCC5)C4)cc32)cnc1S(C)(=O)=O [Example B1, {(S)-3-[4-(6-Methanesulfonyl-5-methyl-pyridin-3-yl)-3,4-dihydro-2H-benzo[1,4]oxazin-6-yloxy]-pyrrolidin-1-yl}-(tetrahydro-pyran-4-yl)-methanone]	0.39	0.029	0.014	0.154

Source: patent US9539260B2, “Dihydro-benzo-oxazine and dihydro-pyrido-oxazine derivatives” (Novartis AG, priority 2012, dated 2017)
